Assay results taken from patent publication US10457680B2, “Process for preparing a PARP inhibitor, crystalline forms, and uses thereof” (BeiGene, Ltd., priority 2015, dated 2019).
Read-outs that look alike come from different tables or passages of the source.

Assays:
[1] = target: PARP2 (aa2-583) (Homo sapiens, UniProt Q9UGN5); test: PARP2 PARylation chemiluminescent assay; type: biochemical; conditions: Crystalline Form C tested
Procedure: PARP1 and PARP2 enzymes were from the assay kits, while TNKS1 and TNKS2 enzymes were produced in-house. The assays were performed according to the manufacture's instruction. Briefly, H2A and H2B proteins were immobilized on the surface of plates and then incubated with a serial dilution of compounds and the target enzyme for 0.5 hr. Then, biotinylated NAD and DNA (no DNA needed for TNKS1 or TNKS2) were added to the wells to initiate reactions. The biotinylated PARsylation product was measured by chemiluminescence after adding streptavidin-HRP and HRP substrates.

[2] = test system: BRCA1/2 mutant ovary cancer; test: Phase I clinical safety study, capsules; type: in vivo, human
[3] = Solubility study; type: physicochemical
[4] = Long term stability studies; type: physicochemical; conditions: for Assay w/w, T12: 12 months; for Assay w/w, T0: start
[5] = Hygroscopicity; type: physicochemical
[6] = test system: MDA-MB-231 cells; test: Growth inhibition, CellTiter-Glo, 7-day exposure, MDA-MB-231; type: cell-based; conditions: BRCA wild type
Procedure: (§1) MDA-MB-231 cells that is not BRCA gene mutant or other homologous recombination deficient were maintained in DMEM supplemented with fetal bovine serum (10% FBS), 100 units/ml penicillin and 0.1 mg/ml streptomycin. BRCA1-deficient cell line MDA-MB-436 was maintained in RPMI-1640 supplemented with 10% FBS, 100 units/ml penicillin and 0.1 mg/ml streptomycin. Both two cell lines were kept at 95% humidity and 5% CO2 in a 37° C. incubator.
(§2) The number of tumor cells seeded per well of a 96-well plate was optimized for each cell line to ensure logarithmic growth over the 7 days treatment period. Cells were left to attach for 16 hours and then treated with specific concentrations of test compounds. Following a 7-day exposure to the compound, the growth-inhibitory activity of compounds was determined using CellTiter-Glo luminescent cell viability assay (Promega). Luminescent signal was measured using PHERAstar FS reader (BMG Labtech). Cell viability was expressed as relative to mock treatment control. EC50 values for growth inhibition were calculated by fitting dose-dependent data to the four-parameter logistic model using XLfit software.

[7] = test system: MDA-MB-436 cells (BRCA1 Deficient); test: Growth inhibition, CellTiter-Glo, 7-day exposure, MDA-MB-436; type: cell-based, human; conditions: for EC50: 7-day exposure, BRCA1 Deficient, read-out: EC50 for growth inhibition, MDA-MB-436 (Table 20)
Procedure: as §1, §2

[8] = test system: PARP; test: In vivo pharmacodynamics: PARylation in MDA-MB-436 breast cancer xenografts; set-up: species or system BALB/c nude mice; conditions: 4 hours after single oral dose at 0.34 mg/kg or higher
[9] = test system: intracranial H209 xenografts; test: Intracranial H209 xenografts, combination with TMZ; type: in vivo, Mice; conditions: Compound A added to TMZ, compared to TMZ single agent
[10] = Brain penetration; conditions: in vivo
[11] = Nonclinical toxicity, single and repeat dose studies up to 28 days; type: in vivo; conditions: rats and dogs
Description: The nonclinical toxicity profile of Compound A was characterized in both rats and dogs in single and repeat dose studies up to 28 days. The adverse effects included decrease in body weights or body weight gain and food consumption; decrease in WBC, NEUT, LYMP, RBC, HGB, HCT and APTT; and increase in PLT. The bone marrow was considered to be the major target organ and the severity of histopathological changes ranged from minimal to marked. […] […]. In summary, the available toxicological data are adequate to support the clinical development of Compound A on late stage and advanced cancer patients in phase I study. The toxicity could be monitored and manageable clinically.

[12] = target: hERG current (Homo sapiens, UniProt Q12809); test: hERG current; type: cell-based
Chain of hERG current (Q12809 whole entry): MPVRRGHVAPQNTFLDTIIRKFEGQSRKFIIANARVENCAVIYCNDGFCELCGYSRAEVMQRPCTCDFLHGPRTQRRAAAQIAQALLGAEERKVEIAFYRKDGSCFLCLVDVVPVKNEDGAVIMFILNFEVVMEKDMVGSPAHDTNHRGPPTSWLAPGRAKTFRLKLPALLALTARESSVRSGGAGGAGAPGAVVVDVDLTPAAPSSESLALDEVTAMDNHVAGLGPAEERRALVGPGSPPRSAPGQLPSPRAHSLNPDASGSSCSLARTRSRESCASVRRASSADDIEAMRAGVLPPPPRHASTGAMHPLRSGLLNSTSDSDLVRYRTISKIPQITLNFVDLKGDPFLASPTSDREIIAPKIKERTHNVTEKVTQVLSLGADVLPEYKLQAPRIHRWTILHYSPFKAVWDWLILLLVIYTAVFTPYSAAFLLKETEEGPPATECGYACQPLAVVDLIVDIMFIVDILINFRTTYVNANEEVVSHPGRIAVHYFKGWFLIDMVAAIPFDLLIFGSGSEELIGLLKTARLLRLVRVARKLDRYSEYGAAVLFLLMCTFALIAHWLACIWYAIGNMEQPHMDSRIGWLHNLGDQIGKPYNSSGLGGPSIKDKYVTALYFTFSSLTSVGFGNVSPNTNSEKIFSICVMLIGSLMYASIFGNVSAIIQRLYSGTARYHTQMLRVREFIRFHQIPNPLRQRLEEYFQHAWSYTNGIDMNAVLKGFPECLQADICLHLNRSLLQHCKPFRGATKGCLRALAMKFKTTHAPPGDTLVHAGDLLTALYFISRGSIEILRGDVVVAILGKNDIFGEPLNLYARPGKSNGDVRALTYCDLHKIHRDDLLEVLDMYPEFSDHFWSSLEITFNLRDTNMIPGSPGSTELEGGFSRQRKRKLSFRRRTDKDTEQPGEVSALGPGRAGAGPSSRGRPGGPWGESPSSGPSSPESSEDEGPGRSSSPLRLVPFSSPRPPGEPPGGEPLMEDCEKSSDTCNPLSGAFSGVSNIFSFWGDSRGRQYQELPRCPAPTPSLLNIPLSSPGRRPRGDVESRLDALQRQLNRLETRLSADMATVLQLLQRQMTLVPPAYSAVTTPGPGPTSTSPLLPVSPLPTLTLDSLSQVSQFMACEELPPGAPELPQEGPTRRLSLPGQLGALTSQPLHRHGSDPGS

[13] = Ames assay
[14] = Pharmacokinetics in rat; type: in vivo
Procedure: (§3) The species used for the pharmacokinetic studies were rat and dog. Compound A had good to excellent oral bioavailability (>40%) in both species. Elimination half-lives ranged from 3.1 to 5.0 hours in rats and 1.5 to 2.5 hours in dogs after oral administration. […] Steady state volume of distribution in rats and dogs was 2.4 L/kg and 1.9 L/kg, respectively.

[15] = Pharmacokinetics in dog; type: in vivo
Procedure: as §3

[16] = Plasma protein binding, human; type: in vitro ADME; conditions: read-out: Plasma protein binding (PPB) (converted)
[17] = Plasma protein binding, monkey; type: in vitro ADME; conditions: read-out: Plasma protein binding (PPB) (converted)
[18] = Plasma protein binding, dog; type: in vitro ADME; conditions: read-out: Plasma protein binding (PPB) (converted)
[19] = test system: rat plasma protein; test: Plasma protein binding, rat; type: in vitro ADME
[20] = Plasma protein binding, mouse; type: in vitro ADME; conditions: read-out: Plasma protein binding (PPB) (converted)
[21] = Tissue distribution after oral administration in rats; type: in vivo; conditions: 24 hours post-dosing
[22] = Metabolism in human liver microsomes; type: in vitro ADME
[23] = Metabolism in dog liver microsomes; type: in vitro ADME
[24] = Metabolism in rat liver microsomes; type: in vitro ADME
[25] = Metabolism in mouse liver microsomes; type: in vitro ADME
[26] = Metabolism in monkey liver microsomes; type: in vitro ADME
[27] = Excretion after oral administration in rats; type: in vivo
[28] = target: CYP2C9 (Homo sapiens, UniProt P11712); test: CYP2C9 inhibition; type: in vitro ADME
Chain of CYP2C9 (P11712 whole entry): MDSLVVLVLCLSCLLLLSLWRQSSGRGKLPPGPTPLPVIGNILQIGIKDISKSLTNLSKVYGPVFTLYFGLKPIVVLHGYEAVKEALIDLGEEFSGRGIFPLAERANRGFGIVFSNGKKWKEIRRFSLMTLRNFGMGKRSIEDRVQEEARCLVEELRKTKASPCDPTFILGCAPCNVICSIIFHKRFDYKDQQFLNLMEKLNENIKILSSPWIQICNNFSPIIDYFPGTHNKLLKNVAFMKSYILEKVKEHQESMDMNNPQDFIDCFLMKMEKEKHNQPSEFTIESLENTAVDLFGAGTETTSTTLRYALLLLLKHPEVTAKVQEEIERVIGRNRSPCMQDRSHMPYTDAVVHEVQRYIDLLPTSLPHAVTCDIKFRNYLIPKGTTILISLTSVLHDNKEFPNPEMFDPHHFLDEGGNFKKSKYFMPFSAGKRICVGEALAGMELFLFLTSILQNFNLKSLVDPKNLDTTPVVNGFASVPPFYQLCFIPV

[29] = test system: other CYP isozymes; test: Inhibition of other CYP isozymes; type: in vitro ADME; conditions: human; read-out: IC50s for other CYP isozymes
[30] = test system: human CYP1A2; test: CYP1A2 induction; type: in vitro ADME
[31] = test system: human CYP2B6; test: CYP2B6 induction; type: in vitro ADME
[32] = test system: human CYP3A; test: CYP3A induction; type: in vitro ADME
[33] = test system: CYP3A, CYP2C8; test: CYP isoforms responsible for metabolism; type: in vitro ADME
[34] = test system: BRCA1 mutation breast cancer xenograft; test: BRCA1 mutation breast cancer xenograft model; type: in vivo; conditions: at much lower dose than olaparib
[35] = test system: Intracellular PARP activity; type: cell-based; conditions: HeLa cells, H2O2 200 μM; read-out: IC50 (nM) in PARylation assay
Procedure: Upon incubation with hydrogen peroxide (H2O2), Intracellular PARP activity was induced and endogenous PAR level was elevated. The assay was performed as follows:
Cells were plated into a 96-well plate with clear bottom and black wall at a density of 5000 cells per well (100 μL). […] In the following day, H2O2 solution in PBS (final concentration 200 μM) was added and the plate was kept at 37° C. for 5 minutes. Then the medium was gently removed by plate inversion, and the cells were fixed by ice-cold MeOH at −20° C. for 20 minutes. […] After removal of solution and repeated wash with PBS, the PAR polymer level was estimated by ArrayScan VTI (ThermoFisher). Percent inhibition was determined on the basis of the residual enzyme activity in the presence of increasing PARP inhibitor concentration. IC50 values were calculated by fitting dose-dependent data to the four-parameter logistic model using XLfit software.

[36] = read-out: EC50 for growth inhibition, MDA-MB-231 (Table 20)

Chain of PARP2 (aa2-583) (Q9UGN5 2-583): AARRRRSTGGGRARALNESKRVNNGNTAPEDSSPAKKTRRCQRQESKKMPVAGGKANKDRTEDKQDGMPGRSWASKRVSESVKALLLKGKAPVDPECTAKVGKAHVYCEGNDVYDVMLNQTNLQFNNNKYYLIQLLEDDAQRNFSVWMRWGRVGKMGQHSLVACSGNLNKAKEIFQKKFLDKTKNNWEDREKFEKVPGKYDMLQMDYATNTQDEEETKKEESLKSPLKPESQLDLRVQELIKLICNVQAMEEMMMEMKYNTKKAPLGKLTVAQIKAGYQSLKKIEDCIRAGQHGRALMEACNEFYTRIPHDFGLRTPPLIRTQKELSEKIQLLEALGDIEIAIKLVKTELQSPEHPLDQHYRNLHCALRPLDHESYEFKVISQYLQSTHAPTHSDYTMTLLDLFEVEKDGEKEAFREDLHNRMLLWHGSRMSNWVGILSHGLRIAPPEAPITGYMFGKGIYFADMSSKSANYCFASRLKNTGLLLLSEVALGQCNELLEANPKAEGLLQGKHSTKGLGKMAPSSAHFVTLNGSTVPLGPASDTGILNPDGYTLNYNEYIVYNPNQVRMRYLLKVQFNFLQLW

With C[C@]12CCCN1CC1=NNC(=O)c3cc(F)cc4[nH]c2c1c34 [Compound A sesqui-hydrate, (R)-2-fluoro-10a-methyl-7,8,9,10,10a,11-hexahydro-5,6,7a,11-tetraazacyclohepta[def]cyclopenta[a]fluoren-4(5H)-one sesqui-hydrate] the IC50 [1] was 0.92 nM, the “clinical safety and tolerability” value ([2]; 25 subjects, 2.5-120 mg bid, capsules) was “safe and well tolerated” and the “solubility in simulated gastric fluid (SGF)” value ([3]; SGF, pH=1.2) was 4.5 mg/mL. It also gave a solubility ([3]; simulated gastric fluid (SGF), pH 1.2, simulated gastric fluid, SGF, pH=1.2, read-out: solubility in simulated gastric fluid (SGF)) of ~4500 µg/mL, a solubility in water ([3]; water) of 0.04 mg/mL and a solubility ([3]; water, read-out: solubility in water) of ~40 µg/mL. The “crystal form and optical purity on storage” value ([4]; 25° C./60% RH and 40° C./75% RH, up to 12 months) was “no crystal form and optical purity changes were observed”, the “Assay w/w, T12” value ([4]; 25° C./60% RH) was 99.0% and the “Assay w/w, T0” value ([4]; 25° C./60% RH) was 99.1%. The “Assay w/w, T12” value ([4]; 40° C./75% RH) was 98.9%, the “Assay w/w, T0” value ([4]; 40° C./75% RH) was 99.0% and the hygroscopicity [5] was “slightly hygroscopic”.

For C[C@]12CCCN1CC1=NNC(=O)c3cc(F)cc4[nH]c2c1c34 [Compound A, (R)-2-fluoro-10a-methyl-7,8,9,10,10a,11-hexahydro-5,6,7a,11-tetraazacyclohepta[def]cyclopenta[a]fluoren-4(5H)-one], the EC50 ([6]; Homo sapiens, MDA-MB-231, 168 h, read-out: EC50 for growth inhibition, MDA-MB-231) was ~9 µM, the EC50 ([6]; Homo sapiens, MDA-MB-231, 168 h, read-out: EC50 for growth inhibition, MDA-MB-231 (Table 20)) was ~9 µM and the “sensitivity of MDA-MB-436 cells” value ([7]; BRCA1-deficient) was “profoundly sensitive”. For the same compound, the EC50 ([7]; Homo sapiens, MDA-MB-436, 168 h) was 41 ± 15 nM, the “inhibition of PARylation” value [8] was “Potent inhibition of PARylation” and the animal survival [9] was “significantly prolonged animal survival”. The brain penetration [10] was “significant brain penetration”, the character of toxicity ([11]; 28-day recovery phase) was “dose dependent, correlated with systemic exposure and reversible” and the “major target organ of toxicity” value ([11]; up to 28 days) was “bone marrow”. The IC50 [12] was 26 µM, the mutagenicity [13] was “No mutagenicity” and the “accumulation following multiple oral dosing” value [14] was “no accumulation”. The bioavailability ([14]; in vivo, po) was > 40%, the clearance ([14]; in vivo, rats) was 8.67 to 15.2 mL/min/kg and the half-life ([14]; in vivo, rats, oral administration, read-out: Elimination half-lives) was 186 to 300 min. For the same compound, the Vd ([14]; in vivo, rats, read-out: Steady state volume of distribution) was 2.4 L/kg, the “accumulation following multiple oral dosing” value [15] was “no accumulation” and the clearance ([15]; in vivo, dogs) was 18.3 to 18.5 mL/min/kg. The half-life ([15]; in vivo, dogs, oral administration, read-out: Elimination half-lives) was 90 to 150 min, the Vd ([15]; in vivo, dogs, read-out: Steady state volume of distribution) was 1.9 L/kg and the bioavailability ([15]; in vivo, po) was > 40%. The fraction unbound [16] was 0.043, the fraction unbound [17] was 0.111 and the fraction unbound [18] was 0.21. The “Plasma protein binding (PPB)” value [19] was 84.9%, the fraction unbound [20] was 0.15 and the “organ drug concentration as % of the peak concentration” value [21] was “less than 10%”. For the same compound, the rate of metabolism [22] was “slowly”, the rate of metabolism [23] was “slowly” and the rate of metabolism [24] was “slowly”. For the same compound, the rate of metabolism [25] was “slowly”, the rate of metabolism [26] was “quickly” and the “excreted in urine and bile” value [27] was “Less than 1%”. For the same compound, the IC50 [28] was 6.48 µM, the IC50 [29] was > 10 µM and the “induction of human CYP1A2” value [30] was “not an inducer”. For the same compound, the “induction of human CYP2B6” value [31] was “not an inducer”, the “induction of human CYP3A” value [32] was “not an inducer” and the “CYP isoform responsible for metabolism” value [33] was “CYP3A was the major CYP isoform”. For the same compound, the clinical response ([2]; BRCA1/2 mutant ovary cancer patients) was “partial or complete responses” and the tumor regression [34] was “significantly induces tumor regression”.

O=C(c1cc(Cc2n[nH]c(=O)c3ccccc23)ccc1F)N1CCN(C(=O)C2CC2)CC1 [Olaparib, olaparib, reference compound] showed an EC50 [6, 36] of ~5 µM and an EC50 [7] of 21 ± 7 nM.

For C[C@]1(c2nc3c(C(N)=O)cccc3[nH]2)CCCN1 [Veliparib, veliparib, reference compound], the IC50 [35] was 2.66 nM, the EC50 [6, 36] was > 10 µM and the EC50 [7] was 820 ± 300 nM.
